Patent US9562035B2, “Benzamide derivative useful as FASN inhibitors for the treatment of cancer” (Janssen Pharmaceutica NV, priority 2013, dated 2017)

Assays:
Type in all cases: cell-based
[1] = test system: LNCaP_Vancouver prostate cells; experiment: In Vitro LNCaP Vancouver Prostate Cell Proliferation Assay in Lipid Reduced Medium; details: lipid reduced serum, 96 h, read-out: Vancouver Cells pIC50 (converted)
Method: LNCaP_Vancouver prostate cells were obtained from the Vancouver Prostate Cancer Centre. Cells were maintained in RPMI-1640, 10% Fetal Calf Serum (FCS, Hyclone), 2 mM glutamine and 50 μg/ml Gentamicin.
For the proliferation experiment 1500 LNCaP_Vancouver cells per well were seeded in a 384-well black with clear bottom plate (costar 3712BC) in 40 μl RPMI-1640, 10% Lipid reduced serum (LRS, Hyclone), 50 μg/ml Gentamicin and 2 mM Glutamine and incubated at 37° C., 5% CO2. The next day 10 μl of test compound/DMSO diluted in medium was added (3E-5M, 1E-5M, 3E-6M, 1E-6M, 3E-7M, 1E-7M, 3E-8M, 1E-8M final concentration). Compounds were tested in duplicate. After 96 h incubation at 37° C., 5% CO2 25 μl ATP-glow mix was added. The plate was incubated for 30 min at 37° C. and luminescence was measured with the Envision.
(§1) pIC50 values were calculated as follows. Raw data generated by the instruments were normalized to % Controlmin values, which were calculated as: % Controlmin=100*(x−mLC)/(mHC−mLC),
(§2) where mLC and mHC are the means of the low control wells and high control wells on the plate, after manual exclusion of outliers. The relation between the % Controlmin values and concentration was fitted to a 4-parameter logistic curve using a non-linear least squares regression method to determine the pIC50 value. Outlying data points were excluded manually to get a correct fit. The pIC50 corresponds to −log 10(IC50), if the IC50 is expressed in molar units (http://www.ncbi.nlm.nih.gov/books/NBK91994). The IC50 parameter was always determined by non-linear regression, but one or more of the other parameters may have been held fixed on a relevant input value, such as 0 for the bottom values.
(§3) For dose response curves with FASN inhibitors in LNCaP_Vancouver or PC-3M-Luc_C6 cells the curves bottom out around 30 to 40% of the control value. A standard fit PL2, forcing the lower bound to this level was used.
(§4) Representative compounds of the present invention were tested according to the procedure as described in Biological Example 4a and 4b above, with results as listed in Table BIO-4, below.

[2] = test system: A2780 ovarian cells; experiment: A2780 Ovarian Cell Proliferation Assay in Lipid Reduced Medium, with Palmitate (control); details: Homo sapiens, A2780; lipid reduced medium, 25 μM palmitate, 96 h, MTT; read-out: Proliferation A2780 with Palmitate pIC50 (converted)
Summary of the method: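 A2780 cells were seeded in RPMI1640 with 10% FCS, then switched next day to medium with 10% lipid-reduced serum. Compound was added with final 25 μM palmitate, 0.2% fatty-acid-free BSA and 0.2% DMSO, and incubated 96 h at 37 °C. Read-out was MTT absorbance at 544 nm; pIC50 = −log(IC50) from curve fit.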

[3] = test system: PC-3M-Luc-C6 prostate cells; experiment: In Vitro PC-3M-Luc-C6 Prostate Cell Proliferation Assay in Lipid Reduced Medium; details: read-out: PC-3M-Luc-C6 Cells pIC50 (μM) (converted), lipid reduced serum, 96 h
Method: PC-3M-Luc-C6 prostate cells were obtained from Xenogen Corporation. Cells were maintained in MEM supplemented with 10% Fetal Calf Serum (FCS, Hyclone), 2 mM glutamine, 1 mM sodium pyruvate, 1% BME vitamins (available from for example, Sigma Aldrich), 0.1 mM non Essential Amino Acid and 50 μg/ml Gentamicin. The cells were passaged twice a week.
1000 PC-3M-Luc-C6 prostate cells (Xenogen) were seeded in a 384-well black with clear bottom plate (costar 3712BC) in 40 μl MEM, 10% LRS (Hyclo ne), 50 μg/ml Gentamicin, 2 mM Glutamine, 1 mM Sodium pyruvaat, 1% BME vitamins and 0.1 mM non Essential Amino Acid and incubated at 37° C., 5% CO2. The next day 10 μl test compound/DMSO diluted in medium was added (3E-5M, 1E-5M, 3E-6M, 1E-6M, 3E-7M, 1E-7M, 3E-8M, 1E-8M final concentration). Compounds were tested in duplicate. After 96 h incubation at 37° C., 5% CO2 25 μl ATP-glow mix was added. The plate was incubated for 30 min at 37° C. and luminescence was measured with the Envision.
as §1, §2, §3, §4

Row | Structure (SMILES) | IC50 [1] | IC50 [2] | IC50 [3]
1 | CC(C)Nc1ccc(C(=O)Nc2cc(C(=O)N3CCC(c4ccc(-c5cnn(C)c5)cc4)CC3)ccc2N)cn1 [Compound 285, N-(2-amino-5-(4-(4-(1-methyl-1H-pyrazol-4-yl)phenyl)piperidine-1-carbonyl)phenyl)-6-(isopropylamino)nicotinamide] | ~0.537 µM | 3.39 µM | 0.126 µM
2 | CNc1ccc(C(=O)N2CCC(c3ccc(-c4cnn(C)c4)cc3)CC2)cc1NC(=O)c1ccc(NC(C)C)nc1 [Compound #279, 6-(isopropylamino)-N-(5-(4-(4-(1-methyl-1H-pyrazol-4-yl)phenyl)piperidine-1-carbonyl)-2-(methylamino)phenyl)nicotinamide] | 0.263 µM | ~10 µM | 0.0355 µM
3 | CN(C)c1ccc(C(=O)N2CCC(c3ccc(-c4cnn(C)c4)cc3)CC2)cc1NC(=O)c1ccc(Cl)nc1 [Compound 275, 6-chloro-N-(2-(dimethylamino)-5-(4-(4-(1-methyl-1H-pyrazol-4-yl)phenyl)piperidine-1-carbonyl)phenyl)nicotinamide] | 0.692 µM | > 10 µM | 0.12 µM
4 | Cc1ccc(C(=O)N2CC(c3ccc(-c4cnn(C)c4)cc3)C2)cc1NC(=O)c1ccc(N2CCOCC2)nc1 [Compound #66, N-(2-methyl-5-(3-(4-(1-methyl-1H-pyrazol-4-yl)phenyl)azetidine-1-carbonyl)phenyl)-6-morpholinonicotinamide] | 0.0295 µM | > 15.1 µM | ~0.00813 µM
5 | CN(c1ccc(C(=O)N2CCC(c3ccc(-c4cnn(C)c4)cc3)CC2)cc1NC(=O)C1CC1)C1CC1 [Compound 288, N-(2-(cyclopropyl(methyl)amino)-5-(4-(4-(1-methyl-1H-pyrazol-4-yl)phenyl)piperidine-1-carbonyl)phenyl)cyclopropanecarboxamide] | ~9.77 µM | > 10 µM | 3.09 µM
6 | CC(C)Nc1ccc(C(=O)Nc2cc(C(=O)N3CCC(c4ccc(-c5cnn(C)c5)cc4)CC3)ccc2NC2CC2)cn1 [Compound 283, N-(2-(cyclopropylamino)-5-(4-(4-(1-methyl-1H-pyrazol-4-yl)phenyl)piperidine-1-carbonyl)phenyl)-6-(isopropylamino)nicotinamide] | 1.05 µM | > 10 µM | 0.245 µM
7 | COCCN(C)c1ccc(C(=O)N2CCC(c3ccc(-c4cnn(C)c4)cc3)CC2)cc1NC(=O)c1ccc(NC(C)C)nc1 [Compound 281, 6-(isopropylamino)-N-(2((2-methoxyethyl)(methyl)amino)-5-(4-(4-(1-methyl-1H-pyrazol-4-yl)phenyl)piperidine-1-carbonyl)phenyl)nicotinamide] | ~1.35 µM | ~6.31 µM | ~0.776 µM
8 | CC(C)Nc1ccc(C(=O)Nc2cc(C(=O)N3CCC(c4ccc(-c5cnn(C)c5)cc4)CC3)ccc2N(C)C)cn1 [Compound 280, N-(2-(dimethylamino)-5-(4-(4-(1-methyl-1H-pyrazol-4-yl)phenyl)piperidine-1-carbonyl)phenyl)-6-(isopropylamino)nicotinamide] | 0.372 µM | 6.17 µM | 0.0724 µM
9 | Cc1ccc(C(=O)N2CC(c3ccc(-c4cnn(C)c4)cc3)C2)cc1NC(=O)c1ccc(N(C)C(C)C)nc1 [Compound #78, 6-(isopropyl(methyl)amino)-N-(2-methyl-5-(3-(4-(1-methyl-1H-pyrazol-4-yl)phenyl)azetidine-1-carbonyl)phenyl)nicotinamide] | ~0.0347 µM | ~15.1 µM | ~0.00871 µM
10 | CC(C)Nc1ccc(C(=O)Nc2cc(C(=O)N3CCC(c4ccc(-c5cnn(C)c5)cc4)CC3)ccc2NC(C)C)cn1 [Compound 284, 6-(isopropylamino)-N-(2-(isopropylamino)-5-(4-(4-(1-methyl-1H-pyrazol-4-yl)phenyl)piperidine-1-carbonyl)phenyl)nicotinamide] | 1.02 µM | > 10 µM | 0.195 µM
11 | CC(C)N(C)c1ccc(C(=O)N2CCC(c3ccc(-c4cnn(C)c4)cc3)CC2)cc1NC(=O)c1ccc(Cl)nc1 [Compound 274, 6-chloro-N-(2-(isopropyl(methyl)amino)-5-(4-(4-(1-methyl-1H-pyrazol-4-yl)phenyl)piperidine-1-carbonyl)phenyl)nicotinamide] | 1.95 µM | > 10 µM | 0.776 µM
12 | CC(C)Nc1ccc(C(=O)Nc2cc(C(=O)N3CCC(c4ccc(-c5cnn(C)c5)cc4)CC3)ccc2N(C)C(C)C)cn1 [Compound 276, N-(2-(isopropyl(methyl)amino)-5-(4-(4-(1-methyl-1H-pyrazol-4-yl)phenyl)piperidine-1-carbonyl)phenyl)-6-(isopropylamino)nicotinamide] | 1.38 µM | > 10 µM | 0.49 µM
13 | CC(C)Nc1ccc(C(=O)Nc2cc(C(=O)N3CCC(c4ccc(-c5cnn(C)c5)cc4)CC3)ccc2N(C)C2CC2)cn1 [Compound 287, N-(2-(cyclopropyl(methyl)amino)-5-(4-(4-(1-methyl-1H-pyrazol-4-yl)phenyl)piperidine-1-carbonyl)phenyl)-6-(isopropylamino)nicotinamide] | 0.977 µM | > 10 µM | 0.186 µM
14 | COCCNc1ccc(C(=O)N2CCC(c3ccc(-c4cnn(C)c4)cc3)CC2)cc1NC(=O)C1CC1 [Compound 286, N-(2-((2-methoxyethyl)amino)-5-(4-(4-(1-methyl-1H-pyrazol-4-yl)phenyl)piperidine-1-carbonyl)phenyl)cyclopropanecarboxamide] | 4.07 µM | > 10 µM | 1.82 µM
15 | COCCNc1ccc(C(=O)N2CCC(c3ccc(-c4cnn(C)c4)cc3)CC2)cc1NC(=O)c1ccc(NC(C)C)nc1 [Compound 282, 6-(isopropylamino)-N-(2-((2-methoxyethyl)amino)-5-(4-(4-(1-methyl-1H-Pyrazol-4-yl)phenyl)piperidine-1-carbonyl)phenyl)nicotinamide] | 1.02 µM | > 10 µM | 0.17 µM
16 | COCCN(C)c1ccc(C(=O)N2CCC(c3ccc(-c4cnn(C)c4)cc3)CC2)cc1NC(=O)C1CC1 [Compound 278, N-(2-((2-methoxyethyl)(methyl)amino)-5-(4-(4-(1-methyl-1H-pyrazol-4-yl)phenyl)piperidine-1-carbonyl)phenyl)cyclopropanecarboxamide] | 6.17 µM | > 10 µM | 2.14 µM
